The compounds below were run on Glomerella lagenarium (Colletotrichum lagenarium) (assay: Example A3: Glomerella lagenarium (Colletotrichum lagenarium) / liquid culture (anthracnose)). Settings: Colletotrichum orbiculare, 3-4 days after application, compared to untreated control.
Format: cell-based
`CCCCCNC(=O)c1nc(N(C#N)c2cc(F)nc(F)c2)sc1C` [X.20, 2-[cyano-(2,6-difluoro-4-pyridyl)amino]-5-methyl-N-pentyl-thiazole-4-carboxamide] showed an inhibition of growth at 20 ppm of no less than 80%.

These compounds were tested on Mycosphaerella arachidis (Cercospora arachidicola) (assay: Example A7: Mycosphaerella arachidis (Cercospora arachidicola) / liquid culture (early leaf spot)). Settings: 4-5 days after application, compared to untreated control.
Format: cell-based
`Cc1sc(N(C#N)c2cc(F)nc(F)c2)nc1C(=O)NCC(C)C` [X.15, 2-[cyano-(2,6-difluoro-4-pyridyl)amino]-N-isobutyl-5-methyl-thiazole-4-carboxamide] was tested, and the inhibition of growth at 20 ppm was no less than 80%.

These compounds were tested on Puccinia recondita f. sp. tritici (assay: not given). Settings: in Triticum aestivum, foliar, read-out: control of Puccinia recondita f, sp. tritici.
Compound `Cc1sc(N(C#N)c2cc(F)nc(F)c2)nc1C(=O)NC1CCC1` [X.02, 2-[cyano-(2,6-difluoro-4-pyridyl)amino]-N-cyclobutyl-5-methyl-thiazole-4-carboxamide] has a pest or weed control at 200 ppm of no less than 80%. `Cc1sc(N(C#N)c2cc(F)cc(F)c2)nc1C(=O)NC1CCC1(C)C` (stereo not drawn) [X.03, 2-(N-cyano-3,5-difluoro-anilino)-N-(2,2-dimethylcyclobutyl)-5-methyl-thiazole-4-carboxamide] was tested, and the pest or weed control at 200 ppm was no less than 80%. `Cc1sc(N(C#N)c2cc(F)nc(F)c2)nc1C(=O)NC1CCC1(C)C` (stereo not drawn) [X.05, 2-[cyano-(2,6-difluoro-4-pyridyl)amino]-N-(2,2-dimethylcyclobutyl)-5-methyl-thiazole-4-carboxamide] was tested, and the pest or weed control at 200 ppm was no less than 80%. `Cc1sc(N(C#N)c2cc(F)nc(F)c2)nc1C(=O)NC1CCC12CCCC2` (stereo not drawn) [X.07, 2-[cyano-(2,6-difluoro-4-pyridyl)amino]-5-methyl-N-spiro[3.4]octan-3-yl-thiazole-4-carboxamide] was tested, and the pest or weed control at 200 ppm was no less than 80%. Compound `Cc1sc(N(C#N)c2cc(F)nc(F)c2)nc1C(=O)NC1CCC12Cc1ccccc1C2` (stereo not drawn) [X.08, 2-[cyano-(2,6-difluoro-4-pyridyl)amino]-5-methyl-N-spiro[cyclobutane-2,2′-indane]-1-yl-thiazole-4-carboxamide] has a pest or weed control at 200 ppm of no less than 80%. `Cc1sc(N(C#N)c2cc(F)nc(F)c2)nc1C(=O)NC1CCC12CCC2` (stereo not drawn) [X.09, 2-[cyano-(2,6-difluoro-4-pyridyl)amino]-5-methyl-N-spiro[3.3]heptan-3-yl-thiazole-4-carboxamide] gave a pest or weed control at 200 ppm of no less than 80%. `Cc1sc(N(C#N)c2cc(F)nc(F)c2)nc1C(=O)NCC1(CC2CC2)CC1` [X.10, 2-[cyano-(2,6-difluoro-4-pyridyl)amino]-N-[[1-(cyclopropylmethyl)cyclopropyl]methyl]-5-methyl-thiazole-4-carboxamide] showed a pest or weed control at 200 ppm of no less than 80%. In the case of `Cc1sc(N(C#N)c2cc(F)cc(F)c2)nc1C(=O)NC1(C)CCCC1` [X.11, 2-(N-cyano-3,5-difluoro-anilino)-5-methyl-N-(1-methylcyclopentyl)thiazole-4-carboxamide], the pest or weed control at 200 ppm was no less than 80%. With `Cc1sc(N(C#N)c2cc(F)nc(F)c2)nc1C(=O)NC1(C)CCCC1` [X.12, 2-[cyano-(2,6-difluoro-4-pyridyl)amino]-5-methyl-N-(1-methylcyclopentyl)thiazole-4-carboxamide] the pest or weed control at 200 ppm was no less than 80%. `CCCCCCNC(=O)c1nc(N(C#N)c2cc(F)nc(F)c2)sc1C` [X.14, 2-[cyano-(2,6-difluoro-4-pyridyl)amino]-N-hexyl-5-methyl-thiazole-4-carboxamide] showed a pest or weed control at 200 ppm of no less than 80%. `Cc1sc(N(C#N)c2cc(F)nc(F)c2)nc1C(=O)NCC(C)C` [X.15, 2-[cyano-(2,6-difluoro-4-pyridyl)amino]-N-isobutyl-5-methyl-thiazole-4-carboxamide] was tested, and the pest or weed control at 200 ppm was no less than 80%. In the case of `Cc1sc(N(C#N)c2cc(F)nc(F)c2)nc1C(=O)NC(C)c1ccccc1` (stereo not drawn) [X.16, 2-[cyano-(2,6-difluoro-4-pyridyl)amino]-5-methyl-N-(1-phenylethyl)thiazole-4-carboxamide], the pest or weed control at 200 ppm was no less than 80%. With `Cc1sc(N(C#N)c2cc(F)nc(F)c2)nc1C(=O)NCC(C)(C)C` [X.18, 2-[cyano-(2,6-difluoro-4-pyridyl)amino]-N-(2,2-dimethylpropyl)-5-methyl-thiazole-4-carboxamide] the pest or weed control at 200 ppm was no less than 80%. `CCCCCNC(=O)c1nc(N(C#N)c2cc(F)nc(F)c2)sc1C` [X.20, 2-[cyano-(2,6-difluoro-4-pyridyl)amino]-5-methyl-N-pentyl-thiazole-4-carboxamide] gave a pest or weed control at 200 ppm of no less than 80%. With `Cc1sc(N(C#N)c2cc(F)nc(F)c2)nc1C(=O)NCc1ccccc1` [X.23, N-benzyl-2-[cyano-(2,6-difluoro-4-pyridyl)amino]-5-methyl-thiazole-4-carboxamide] the pest or weed control at 200 ppm was no less than 80%. Compound `CCCCNC(=O)c1nc(N(C#N)c2cc(F)nc(F)c2)sc1C` [X.24, N-butyl-2-[cyano-(2,6-difluoro-4-pyridyl)amino]-5-methyl-thiazole-4-carboxamide] has a pest or weed control at 200 ppm of no less than 80%.
